Source: patent publication US8299267B2, “(3-hydroxy-4-amino-butan-2-yl) -3- (2-thiazol-2-yl-pyrrolidine-1-carbonyl) benzamide derivatives and related compounds as beta-secretase inhibitors for treating” (CoMentis, Inc., priority 2007, dated 2012)

Experiments:
memapsin 2 = memapsin 2 (Homo sapiens, UniProt P56817); test: Inhibition of memapsin 2 beta-secretase activity toward fluorogenic substrate FS-2; type: biochemical; conditions: memapsin 2, pH 4, 37° C., 20 minutes pre-incubation, substrate FS-2; read-out: M2Ki
Method in brief: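 Memapsin 2 was preincubated with compound 20 min at pH 4, 37 °C, then reacted with fluorogenic substrate FS-2 (MCA-SEVNLDAEFK-DNP), an APP-derived Swedish-variant peptide. Inhibition was followed kinetically by fluorescence.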

[1] = tested on: Aβ production in Chinese hamster ovary cells that over-express human APP695 with the London and Swedish mutations; test: Cellular Aβ IC50 determination (Aβ40 sandwich ELISA); type: cell-based; conditions: Cricetulus griseus; Aβ40 in CHO cells over-expressing human APP695, 24 h incubation
Method in brief: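 APP695 (London/Swedish)-overexpressing CHO cells were treated 48 h after seeding with serial dilutions from near 4 μM top concentration (0.4% DMSO) for 24 h at 37 °C. Secreted Aβ40 was quantified by sandwich ELISA relative to controls and fit to a 4-parameter IC50 model.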

Sequence of memapsin 2 (P56817 46-501): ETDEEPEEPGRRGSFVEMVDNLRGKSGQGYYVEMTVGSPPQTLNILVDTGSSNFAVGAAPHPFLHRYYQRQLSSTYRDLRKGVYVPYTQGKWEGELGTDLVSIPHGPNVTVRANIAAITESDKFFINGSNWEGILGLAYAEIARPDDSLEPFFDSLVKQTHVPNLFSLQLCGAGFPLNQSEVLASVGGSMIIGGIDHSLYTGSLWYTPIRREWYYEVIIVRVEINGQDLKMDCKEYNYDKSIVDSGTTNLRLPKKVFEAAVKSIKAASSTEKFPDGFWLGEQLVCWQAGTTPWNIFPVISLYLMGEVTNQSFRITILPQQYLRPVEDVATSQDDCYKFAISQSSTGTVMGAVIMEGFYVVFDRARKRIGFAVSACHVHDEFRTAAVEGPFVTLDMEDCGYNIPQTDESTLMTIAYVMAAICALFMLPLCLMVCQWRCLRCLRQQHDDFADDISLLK

Row | SMILES | Ki (memapsin 2) | IC50 [1]
1 | Cc1csc([C@H]2CCCN2C(=O)c2cc(C(=O)N[C@@H](Cc3ccccc3)[C@H](O)CNCc3cccc(C(F)(F)F)c3)cc(-c3ccc(F)nc3)n2)n1 [Compound 88, 6′-fluoro-N-((2S,3R)-3-hydroxy-1-phenyl-4-(3-(trifluoromethyl)benzylamino)butan-2-yl)-6-((R)-2-(4-methylthiazol-2-yl)pyrrolidine-1-carbonyl)-2,3′-bipyridine-4-carboxamide] | 0.101 to 0.2 µM | < 0.3 µM
2 | Cc1cc(CNC[C@@H](O)[C@H](Cc2ccccc2)NC(=O)c2cccc(C(=O)N3CCC[C@@H]3c3nc(C)cs3)c2)on1 [Compound 65, N-((2S,3R)-3-hydroxy-4-((3-methylisoxazol-5-yl)methylamino)-1-phenylbutan-2-yl)-3-((R)-2-(4-methylthiazol-2-yl)pyrrolidine-1-carbonyl)benzamide] | > 0.201 µM | 0.301 to 0.5 µM
3 | Cc1csc([C@H]2CCCN2C(=O)c2cncc(C(=O)N[C@@H](Cc3ccccc3)[C@H](O)CNCc3cccc(C(C)(C)C)c3)c2)n1 [Compound 32, N-((2S,3R)-4-(3-tert-butylbenzylamino)-3-hydroxy-1-phenylbutan-2-yl)-5-((R)-2-(4-methylthiazol-2-yl)pyrrolidine-1-carbonyl)nicotinamide] | 0.101 to 0.2 µM | < 0.3 µM
4 | C=C(C)c1cccc(CNC[C@@H](O)[C@H](Cc2ccccc2)NC(=O)c2cccc(C(=O)N3CCC[C@@H]3c3nc(C)co3)c2)c1 [Compound 105, N-((2S,3R)-3-hydroxy-1-phenyl-4-(3-(prop-1-en-2-yl)benzylamino)butan-2-yl)-3-((R)-2-(4-methyloxazol-2-yl)pyrrolidine-1-carbonyl)benzamide] | < 0.1 µM | < 0.3 µM
5 | Cc1csc([C@H]2CCCN2C(=O)c2cc(CF)cc(C(=O)N[C@@H](Cc3ccccc3)[C@H](O)CNCc3cncc(C(C)(C)F)c3)c2)n1 [Compound 50, 3-(fluoromethyl)-N-((2S,3R)-4-((5-(2-fluoropropan-2-yl)pyridin-3-yl)methylamino)-3-hydroxy-1-phenylbutan-2-yl)-5-((R)-2-(4-methylthiazol-2-yl)pyrrolidine-1-carbonyl)benzamide] | < 0.1 µM | < 0.3 µM
6 | Cc1cc(C(=O)N[C@@H](Cc2ccccc2)[C@H](O)CNCc2cccc(C(F)(F)F)c2)cc(C(=O)N2CCC[C@@H]2c2nc(C)cs2)n1 [Compound 79, N-((2S,3R)-3-hydroxy-1-phenyl-4-(3-(trifluoromethyl)benzylamino)butan-2-yl)-2-methyl-6-((R)-2-(4-methylthiazol-2-yl)pyrrolidine-1-carbonyl)isonicotinamide] | < 0.1 µM | < 0.3 µM
7 | Cc1coc([C@H]2CCCN2C(=O)c2cncc(C(=O)N[C@@H](Cc3ccccc3)[C@H](O)CNCc3cncc(C(C)(C)F)c3)c2)n1 [Compound 73, N-((2S,3R)-4-((5-(2-fluoropropan-2-yl)pyridin-3-yl)methylamino)-3-hydroxy-1-phenylbutan-2-yl)-5-((R)-2-(4-methyloxazol-2-yl)pyrrolidine-1-carbonyl)nicotinamide] | < 0.1 µM | < 0.3 µM
8 | Cc1coc([C@H]2CCCN2C(=O)c2cncc(C(=O)N[C@@H](Cc3ccccc3)[C@H](O)CNCc3cccc(C(C)(C)C)c3)c2)n1 [Compound 76, N-((2S,3R)-4-(3-tert-butylbenzylamino)-3-hydroxy-1-phenylbutan-2-yl)-5-((R)-2-(4-methyloxazol-2-yl)pyrrolidine-1-carbonyl)nicotinamide] | < 0.1 µM | < 0.3 µM
9 | Cc1coc([C@H]2CCCN2C(=O)c2cc(CF)cc(C(=O)N[C@@H](Cc3ccccc3)[C@H](O)CNCc3cncc(C(C)C)c3)c2)n1 [Compound 77, 3-(fluoromethyl)-N-((2S,3R)-3-hydroxy-4-((5-isopropylpyridin-3-yl)methylamino)-1-phenylbutan-2-yl)-5-((R)-2-(4-methyloxazol-2-yl)pyrrolidine-1-carbonyl)benzamide] | < 0.1 µM | < 0.3 µM
10 | COc1cccc(CNC[C@@H](O)[C@H](Cc2ccccc2)NC(=O)c2cccc(C(=O)N3CSC[C@@H]3c3nc(C)cs3)c2)c1 [Compound 8, N-((2S,3R)-3-hydroxy-4-(3-methoxybenzylamino)-1-phenylbutan-2-yl)-3-((R)-4-(4-methylthiazol-2-yl)thiazolidine-3-carbonyl)benzamide] | < 0.1 µM | < 0.3 µM

Continued, values first:

Row | Ki (memapsin 2) | IC50 [1] | SMILES
11 | < 0.1 µM | < 0.3 µM | Cc1csc([C@H]2CCCN2C(=O)c2cc(C(=O)N[C@@H](Cc3ccccc3)[C@H](O)CNCc3cccc(C(F)(F)F)c3)cc(-c3cnccn3)c2)n1 [Compound 49, N-((2S,3R)-3-hydroxy-1-phenyl-4-(3-(trifluoromethyl)benzylamino)butan-2-yl)-3-((R)-2-(4-methylthiazol-2-yl)pyrrolidine-1-carbonyl)-5-(pyrazin-2-yl)benzamide]
12 | < 0.1 µM | < 0.3 µM | Cc1csc([C@H]2CCCN2C(=O)c2cccc(C(=O)N[C@@H](Cc3ccccc3)[C@H](O)CNCc3cccc(Cl)c3)c2)n1 [Compound 17, N-((2S,3R)-4-(3-chlorobenzylamino)-3-hydroxy-1-phenylbutan-2-yl)-3-((R)-2-(4-methylthiazol-2-yl)pyrrolidine-1-carbonyl)benzamide]
13 | < 0.1 µM | < 0.3 µM | Cc1csc([C@H]2CCCN2C(=O)c2cc(C(=O)N[C@@H](Cc3ccccc3)[C@H](O)CNCc3cccc(Cl)c3)cc(N(C)C)c2)n1 [Compound 47, N-((2S,3R)-4-(3-chlorobenzylamino)-3-hydroxy-1-phenylbutan-2-yl)-3-(dimethylamino)-5-((R)-2-(4-methylthiazol-2-yl)pyrrolidine-1-carbonyl)benzamide]
14 | < 0.1 µM | < 0.3 µM | COc1cccc([C@H](C)NC[C@@H](O)[C@H](Cc2ccccc2)NC(=O)c2cccc(C(=O)N3CCC[C@@H]3c3nc(C)cs3)c2)c1 [Compound 22, N-((2S,3R)-3-hydroxy-4-((S)-1-(3-methoxyphenyl)ethylamino)-1-phenylbutan-2-yl)-3-((R)-2-(4-methylthiazol-2-yl)pyrrolidine-1-carbonyl)benzamide]
15 | < 0.1 µM | < 0.3 µM | Cc1coc([C@H]2CCCN2C(=O)c2cc(C(=O)N[C@@H](Cc3ccccc3)[C@H](O)CNCc3cccc(C(F)(F)F)c3)ccn2)n1 [Compound 94, N-((2S,3R)-3-hydroxy-1-phenyl-4-(3-(trifluoromethyl)benzylamino)butan-2-yl)-2-((R)-2-(4-methyloxazol-2-yl)pyrrolidine-1-carbonyl)isonicotinamide]
16 | < 0.1 µM | < 0.3 µM | Cc1coc([C@H]2CCCN2C(=O)c2cc(C(=O)N[C@@H](Cc3ccccc3)[C@H](O)CNCc3cncc(C(C)C)c3)cc(-c3ncco3)c2)n1 [Compound 86, N-((2S,3R)-3-hydroxy-4-((5-isopropylpyridin-3-yl)methylamino)-1-phenylbutan-2-yl)-3-((R)-2-(4-methyloxazol-2-yl)pyrrolidine-1-carbonyl)-5-(oxazol-2-yl)benzamide]
17 | < 0.1 µM | < 0.3 µM | COc1cc(C(=O)N[C@@H](Cc2ccccc2)[C@H](O)CNCc2cccc(C(F)(F)F)c2)cc(C(=O)N2CCC[C@@H]2c2nc(C)co2)c1 [Compound 93, N-((2S,3R)-3-hydroxy-1-phenyl-4-(3-(trifluoromethyl)benzylamino)butan-2-yl)-3-methoxy-5-((R)-2-(4-methyloxazol-2-yl)pyrrolidine-1-carbonyl)benzamide]
18 | < 0.1 µM | < 0.3 µM | Cc1csc([C@H]2CCCN2C(=O)c2cc(C(=O)N[C@@H](Cc3ccccc3)[C@H](O)CNCc3cncc(C(C)C)c3)cc(-n3cccc3)c2)n1 [Compound 74, N-((2S,3R)-3-hydroxy-4-((5-isopropylpyridin-3-yl)methylamino)-1-phenylbutan-2-yl)-3-((R)-2-(4-methylthiazol-2-yl)pyrrolidine-1-carbonyl)-5-(1H-pyrrol-1-yl)benzamide]
19 | < 0.1 µM | < 0.3 µM | Cc1csc([C@H]2CCCN2C(=O)c2cccc(C(=O)N[C@@H](Cc3ccccc3)[C@H](O)CNCc3cncc(C(C)(C)F)c3)c2)n1 [Compound 45, N-((2S,3R)-4-((5-(2-fluoropropan-2-yl)pyridin-3-yl)methylamino)-3-hydroxy-1-phenylbutan-2-yl)-3-((R)-2-(4-methylthiazol-2-yl)pyrrolidine-1-carbonyl)benzamide]
20 | < 0.1 µM | < 0.3 µM | Cc1cc(C(=O)N[C@@H](Cc2ccccc2)[C@H](O)CNCc2cncc(C(C)C)c2)cc(C(=O)N2CCC[C@@H]2c2nc(C)co2)c1 [Compound 56, N-((2S,3R)-3-hydroxy-4-((5-isopropylpyridin-3-yl)methylamino)-1-phenylbutan-2-yl)-3-methyl-5-((R)-2-(4-methyloxazol-2-yl)pyrrolidine-1-carbonyl)benzamide]
21 | < 0.1 µM | < 0.3 µM | Cc1coc([C@H]2CCCN2C(=O)c2cccc(C(=O)N[C@@H](Cc3ccccc3)[C@H](O)CNCc3cccc(C(F)(F)F)c3)c2)n1 [Compound 35, N-((2S,3R)-3-hydroxy-1-phenyl-4-(3-(trifluoromethyl)benzylamino)butan-2-yl)-3-((R)-2-(4-methyloxazol-2-yl)pyrrolidine-1-carbonyl)benzamide]
22 | < 0.1 µM | < 0.3 µM | Cc1csc([C@H]2CCCN2C(=O)c2cc(C(=O)N[C@@H](Cc3ccccc3)[C@H](O)CNCc3cc(Cl)cc(Cl)c3)cc(N(C)C)c2)n1 [Compound 48, N-((2S,3R)-4-(3,5-dichlorobenzylamino)-3-hydroxy-1-phenylbutan-2-yl)-3-(dimethylamino)-5-((R)-2-(4-methylthiazol-2-yl)pyrrolidine-1-carbonyl)benzamide]
